# Experimental data from publication PMC8224742, “Evaluation of 1β-Hydroxylation of Deoxycholic Acid as a Non-Invasive Urinary Biomarker of CYP3A Activity in the Assessment of Inhibition-Based Drug–Drug Interaction in Healthy Volunteers” (Journal of Personalized Medicine, 2021).
# Entries after “also recorded” stand apart in the source; their conditions may differ. Like-named read-outs stand apart in the source and are kept apart here. Marks after values point to notes of the source that are not given here.
# Columns and labels:
# [1] = test system: CYP3A; assay: Oral MDZ (1.5 mg p.o.) plasma pharmacokinetics (MDZ and 1′-OH-MDZ) alone and after repeated inhibitor administration; settings: for 1’-OH-MDZ AUC0– (zero to infinity), MDZ alone / 1’-OH-MDZ AUClast, MDZ alone / 1’-OH-MDZ Cmax, MDZ alone / 1’-OH-MDZ T1/2, MDZ alone / 1’-OH-MDZ Tmax, MDZ alone / MDZ CL, MDZ alone: MDZ 1.5 mg p.o., geometric mean (90% CI)
# Method: (§1) ITZ tablets (200 mg) were split equally in two, and 100 mg were given to subjects.
# (§2) MDZ acted as a nested control in the evaluation of the endogenous urinary markers, and it was administered both orally (1.5 mg) and intravenously (i.v.; 1.0 mg). Participants were all treated the same way for the baseline and randomly split into 3 arms of 8–10 individuals each to evaluate the effect of the inhibitors. […] MDZ pharmacokinetic (PK) profiling and biomarker sampling was also conducted after the washout period and at the end of the study to determine whether enzyme activity returned to baseline levels. The subjects were their control. Treatment, washout and end of study values were compared with values at baseline.
# (§3) Plasma concentrations of MDZ and its metabolite 1′-OH-MDZ were analysed using a validated LC-MS/MS method. Plasma samples were extracted using protein precipitation, where 300 µL of acetonitrile (ACN) containing 500 ng/mL diazepam as an internal standard (IS) was added to 100 µL of plasma. The mixture was then vortexed for 10 min, followed by centrifugation at 10,000× g for 5 min at a temperature of 4 °C. The supernatant was collected, and 5 µL were injected into the LC-MS/MS for analysis.
# (§4) The mobile phase consisted of 10 mM ammonium formate in 5% methanol (MeOH) (A) and ACN (B). […] The column temperature was maintained at 40 °C. MDZ and 1′-OH-MDZ were detected on a Sciex 3200 mass spectrometer with a turbo ion spray interphase operated in positive ion mode at 5500 V, a temperature of 5000 °C; GS1 and GS2 at 50 and 60 psi, respectively; and a curtain gas flow of 25 psi. […] The quantification of the MDZ and 1′-OH-MDZ was performed using the Analyst software (version 1.2; Applied Biosystems).
# (§5) Standard non-compartmental pharmacokinetic (PK) analysis was performed with the WinNolin program, version 4.1 (Pharsight Corp, Mountain View, CA, USA), using the linear up logarithmic down trapezoidal method. The plasma parameters that were assessed and used for the comparison with the urinary biomarker were MDZ clearance (MDZ CL) and the area under the plasma concentration-time curve (AUC) from zero to infinity (AUC0–inf) of MDZ. More PK parameters were evaluated for MDZ and 1′-OH-MDZ.
# (§6) The difference between log-transformed treatment/baseline was calculated pairwise for each subject, as well as for their 90% confidence intervals (CIs). These differences and CIs were anti-log-transformed back for reporting purposes. The same analysis was performed for MDZ clearance and AUC0-inf before and after treatment for comparison.
# (§7) The pharmacokinetic (PK) parameters of MDZ were performed by standard noncompartmental
# (§8) methods using the WinNolin program, version 4.1 (Pharsight Corp, Mountain View, CA, USA).
# (§9) were plotted as graphs of midazolam or 1-OH-midazolam concentration vs. time.
# [2] = test system: CYP3A; assay: Intravenous MDZ (1.0 mg i.v.) plasma pharmacokinetics (MDZ and 1′-OH-MDZ) alone and after repeated inhibitor administration; settings: for 1’-OH-MDZ AUC0– (zero to infinity), MDZ alone / 1’-OH-MDZ AUClast, MDZ alone / 1’-OH-MDZ Cmax, MDZ alone / 1’-OH-MDZ T1/2, MDZ alone / 1’-OH-MDZ Tmax, MDZ alone: MDZ 1 mg i.v., geometric mean (90% CI)
# Method: as §1, §2, §3, §4, §5, §6, §7, §8, §9
# [3] = test system: CYP3A
# Method: as §1, §2
# Sample preparations for the analysis of 1β-OH-DCA and ToDCA in human urine were performed using a previously described method but without acid solvolysis [15, 20]. In brief, an aliquot of 50 µL of a 0.1 M Tris HCL buffer (pH 5) containing a mixture of hydrolysis enzymes (100 U/mL choloylglycine hydrolase, 200 µL/mL β-glucuronidase/arylsulfatase, and 100 U/mL sulfatase) was added to 50 µL of urine, followed by adding 50 µL of an aqueous solution containing 1 µM of (D4)-DCA and (D4)-1β-OH-DCA as IS. The mixture was incubated overnight at 37 °C at a shaking speed of 500 rpm for enzymatic hydrolysis of glucuronides, sulfates, and amino acid conjugates. The reaction mixture was then quenched with a 300 µL ACN-MeOH (1:1, v/v) solution followed by centrifugation at 4000× g, 4 °C for 20 min. The supernatant was separated and diluted with an equal volume of water for ultra-high-performance liquid chromatography-high resolution mass spectrometry (UPLC-HRMS) analysis. […]
# References containing 10 µM G-DCA, T-DCA, G-1β-OH-DCA, T-1β-OH-DCA, CDCA-24-G, and DCA-3-S were also prepared in stripped urine and subjected to enzymatic hydrolysis to monitor the efficiency of enzymatic deconjugation. […] Therefore, the concentrations of DCA-3-S were also determined in urine and combined with free DCA to represent the total concentration of DCA, i.e., ToDCA. […]
# [4] = test system: CYP3A; settings: human, in vivo
# Method: as §1, §2, §3, §4, §5, §6, §7, §8, §9
# [5] = test system: CYP3A; settings: human, in vivo, iv
# Method: as §1, §2, §3, §4, §5, §6, §7, §8, §9
# [6] = test system: CYP3A; settings: ITZ 200 mg od for 6 days; cited from earlier work
# [7] = Oral MDZ (1.5 mg p.o.) plasma pharmacokinetics (MDZ and 1′-OH-MDZ) alone and after repeated inhibitor administration; settings: human, in vivo, po, 1.5 mg; for AUC: MDZ AUC0– (zero to infinity); for AUC / AUC(0-t) / Cmax / Tmax: MDZ alone; for AUC / AUC(0-t) / Cmax / half-life / Tmax: MDZ 1.5 mg p.o., geometric mean (90% CI); for AUC(0-t): MDZ AUClast; for Cmax: MDZ Cmax; for half-life: MDZ T1/2, MDZ alone; for Tmax: MDZ Tmax; for AUC(0-inf): Oral MDZ AUC0-inf, Baseline, MDZ 1.5 mg p.o. before inhibitor, geometric mean (range)
# Method: as §1, §2, §3, §4, §5, §6, §7, §8, §9
# [8] = Intravenous MDZ (1.0 mg i.v.) plasma pharmacokinetics (MDZ and 1′-OH-MDZ) alone and after repeated inhibitor administration; settings: human, in vivo, iv, 1 mg; for AUC: MDZ AUC0– (zero to infinity); for AUC(0-t): MDZ AUClast; for Cmax: MDZ Cmax; for half-life: MDZ T1/2, MDZ alone; for Tmax: MDZ Tmax; for AUC(0-inf): i.v. MDZ AUC0-inf
# Method: as §1, §2, §3, §4, §5, §6, §7, §8, §9
# [9] = repeated administration (APZ 1 mg od)
# [10] = MDZ alone, MDZ 1 mg i.v., APZ arm (Table S1), geometric mean (90% CI)
# [11] = MDZ alone, MDZ 1 mg i.v., FKZ arm (Table S2), geometric mean (90% CI)
# [12] = MDZ alone, MDZ 1 mg i.v., ITZ arm (Table S3), geometric mean (90% CI)
smiles,measurement,setting,value
"OCc1ncc2n1-c1ccc(Cl)cc1C(c1ccccc1F)=NC2 [1’-OH-MDZ, 1′-hydroxymidazolam]","1’-OH-MDZ AUC0– (zero to infinity), MDZ alone",[1]; APZ arm (Table S1),10.56 (6.77–16.48) ng·h/mL
same,"1’-OH-MDZ AUClast, MDZ alone",[1]; APZ arm (Table S1),8.23 (6.15–11.02) ng·h/mL
same,"1’-OH-MDZ Cmax, MDZ alone",[1]; APZ arm (Table S1),2.60 (2.13–3.18) ng/mL
same,"1’-OH-MDZ T1/2, MDZ alone",[1]; APZ arm (Table S1),2.54 (1.26–5.09) h
same,"1’-OH-MDZ Tmax, MDZ alone",[1]; APZ arm (Table S1),0.77 (0.65–0.91) h
same,"1’-OH-MDZ AUC0– (zero to infinity), MDZ alone",[1]; FKZ arm (Table S2),6.73 (3.77 – 12.01) ng·h/ml
same,"1’-OH-MDZ AUClast, MDZ alone",[1]; FKZ arm (Table S2),6.56 (3.6 – 11.94) ng·h/ml
same,"1’-OH-MDZ Cmax, MDZ alone",[1]; FKZ arm (Table S2),2.81 (1.61 – 4.92) ng/ml
same,"1’-OH-MDZ T1/2, MDZ alone",[1]; FKZ arm (Table S2),1.99 (1.32 – 3.0) h
same,"1’-OH-MDZ Tmax, MDZ alone",[1]; FKZ arm (Table S2),0.83 (0.56 – 1.21) h
same,"1’-OH-MDZ AUC0– (zero to infinity), MDZ alone",[1]; ITZ arm (Table S3),4.57 (3.04 – 6.88) ng·h/ml
same,"1’-OH-MDZ AUClast, MDZ alone",[1]; ITZ arm (Table S3),4.22 (2.8 -6.36) ng·h/ml
same,"1’-OH-MDZ Cmax, MDZ alone",[1]; ITZ arm (Table S3),2.29 (1.64 – 3.19) ng/ml
same,"1’-OH-MDZ T1/2, MDZ alone",[1]; ITZ arm (Table S3),1.34 (1.05 -1.7) h
same,"1’-OH-MDZ Tmax, MDZ alone",[1]; ITZ arm (Table S3),0.71 (0.63 – 0.80) h
same,"1’-OH-MDZ AUC0– (zero to infinity), MDZ alone",[2]; APZ arm (Table S1),4.49 (2.12–9.50) ng·h/mL
same,"1’-OH-MDZ AUClast, MDZ alone",[2]; APZ arm (Table S1),2.54 (1.49–4.35) ng·h/ml
same,"1’-OH-MDZ Cmax, MDZ alone",[2]; APZ arm (Table S1),1.24 (1.02–1.50) ng/mL
same,"1’-OH-MDZ AUC0– (zero to infinity), MDZ alone",[2]; FKZ arm (Table S2),3.31 (1.92 – 5.72) ng·h/ml
same,"1’-OH-MDZ AUClast, MDZ alone",[2]; FKZ arm (Table S2),2.56 (1.65 - 3.96) ng·h/ml
same,"1’-OH-MDZ Cmax, MDZ alone",[2]; FKZ arm (Table S2),1.09 (0.76 – 1.56) ng/ml
same,"1’-OH-MDZ T1/2, MDZ alone",[2]; FKZ arm (Table S2),2.30 (1.44 -3.65) h
same,"1’-OH-MDZ Tmax, MDZ alone",[2]; FKZ arm (Table S2),0.79 (0.69 – 0.90) h
same,"1’-OH-MDZ AUC0– (zero to infinity), MDZ alone",[2]; ITZ arm (Table S3),2.26 (1.5 – 3.41) ng·h/ml
same,"1’-OH-MDZ AUClast, MDZ alone",[2]; ITZ arm (Table S3),2.00 (1.41 – 3.01) ng·h/ml
same,"1’-OH-MDZ Cmax, MDZ alone",[2]; ITZ arm (Table S3),1.09 (0.87 – 1.35) ng/ml
same,"1’-OH-MDZ T1/2, MDZ alone",[2]; ITZ arm (Table S3),1.25 (0.8 – 1.95) h
same,"1’-OH-MDZ Tmax, MDZ alone",[2]; ITZ arm (Table S3),0.79 (0.69 -0.90) h
"Cc1nnc2n1-c1ccc(Cl)cc1C(c1ccccc1)=NC2 [APZ, alprazolam]",effect on 1β-OH-DCA/ToDCA UMR (in words),[3]; [9],No inhibition; also recorded: no significant effect
same,effect on MDZ PK parameters (in words),[1]; [9],no significant effect
"OC(Cn1cncn1)(Cn1cncn1)c1ccc(F)cc1F [FKZ, fluconazole]","1’-OH-MDZ T1/2, MDZ + inhibitor",[4]; po,1.71 (1 – 2.89) h
same,"1’-OH-MDZ Tmax, MDZ + inhibitor",[4]; po,0.83 (0.68 – 1) h
same,"1’-OH-MDZ T1/2, MDZ + inhibitor",[5],2.25 (1.56 – 3.23) h
same,"1’-OH-MDZ Tmax, MDZ + inhibitor",[5],0.70 (0.59 – 0.83) h
"CCC(C)n1ncn(-c2ccc(N3CCN(c4ccc(OCC5COC(Cn6cncn6)(c6ccc(Cl)cc6Cl)O5)cc4)CC3)cc2)c1=O (stereo not drawn) [ITZ, itraconazole]",time after completion of treatment at which 1β-OH-DCA/ToDCA ratio was fully restored to baseline,[3]; after ITZ 100 mg od for 6 days,nine
same,"Oral MDZ CL, Treatment/Baseline (90%CI)",[4],0.30 ** (0.18–0.47)
same,decrease of oral MDZ CL from baseline,[4],70%
same,"i.v. MDZ CL, Treatment/Baseline (90%CI)",[5],0.44 * (0.26–0.73)
same,fold increase in oral MDZ AUC,[6],6.6 fold
same,reduced oral MDZ clearance,[6],85%
"Cc1ncc2n1-c1ccc(Cl)cc1C(c1ccccc1F)=NC2 [MDZ, midazolam]",AUC,[7]; APZ arm (Table S1),0.0106 µg·h/mL
same,AUC,[7]; FKZ arm (Table S2),0.0194 µg·h/mL
same,AUC,[7]; ITZ arm (Table S3),0.00964 µg·h/mL
same,AUC(0-t),[7]; APZ arm (Table S1),0.0104 µg·h/mL
same,AUC(0-t),[7]; FKZ arm (Table S2),0.0185 µg·h/mL
same,AUC(0-t),[7]; ITZ arm (Table S3),0.00861 µg·h/mL
same,Cmax,[7]; APZ arm (Table S1),0.00413 µg/mL
same,Cmax,[7]; FKZ arm (Table S2),0.00618 µg/mL
same,Cmax,[7]; ITZ arm (Table S3),0.00486 µg/mL
same,half-life,[7]; APZ arm (Table S1),1.63 h
same,half-life,[7]; FKZ arm (Table S2),2.26 h
same,half-life,[7]; ITZ arm (Table S3),1.43 h
same,Tmax,[7]; APZ arm (Table S1),0.76 h
same,Tmax,[7]; FKZ arm (Table S2),0.79 h
same,Tmax,[7]; ITZ arm (Table S3),0.63 h
same,AUC(0-inf),[7]; APZ arm,0.0106 µg·h/mL
same,AUC(0-inf),[7]; FKZ arm,0.0227 µg·h/mL
same,"Oral MDZ CL, Baseline","[1]; APZ arm, MDZ 1.5 mg p.o. before inhibitor, geometric mean (range)",59.1 (28.0–220.5) L/h
same,"Oral MDZ CL, Baseline","[1]; FKZ arm, MDZ 1.5 mg p.o. before inhibitor, geometric mean (range)",59.8 (17.0–135.9) L/h
same,"Oral MDZ CL, Baseline","[1]; ITZ arm, MDZ 1.5 mg p.o. before inhibitor, geometric mean (range)",126 (46.7–648.8) L/h
same,"MDZ CL, MDZ alone",[1]; APZ arm (Table S1),137.34 (101–186) L/h
same,"MDZ CL, MDZ alone",[1]; FKZ arm (Table S2),77.41 (56.44 – 106.19) L/h
same,"MDZ CL, MDZ alone",[1]; ITZ arm (Table S3),155.58 L/h
same,AUC(0-inf),"[1]; human, in vivo, po, 1.5 mg, Oral MDZ AUC0-inf, Baseline, ITZ arm, MDZ 1.5 mg p.o. before inhibitor, geometric mean (range)",0.0108 µg·h/mL
same,AUC,[8]; [10],0.0168 µg·h/mL
same,AUC,[8]; [11],0.0124 µg·h/mL
same,AUC,[8]; [12],0.0135 µg·h/mL
same,AUC(0-t),[8]; [10],0.0166 µg·h/mL
same,AUC(0-t),[8]; [11],0.012 µg·h/mL
same,AUC(0-t),[8]; [12],0.0129 µg·h/mL
same,clearance,"[8]; MDZ CL, MDZ alone, MDZ 1 mg i.v., APZ arm (Table S1), geometric mean (90% CI)",998 mL/min
same,clearance,"[8]; MDZ CL, MDZ alone, MDZ 1 mg i.v., FKZ arm (Table S2), geometric mean (90% CI)",1350 mL/min
same,clearance,"[8]; MDZ CL, MDZ alone, MDZ 1 mg i.v., ITZ arm (Table S3), geometric mean (90% CI)",1230 mL/min
same,Cmax,[8]; [10],0.026 µg/mL
same,Cmax,[8]; [11],0.0226 µg/mL
same,Cmax,[8]; [12],0.025 µg/mL
same,half-life,"[8]; MDZ 1 mg i.v., APZ arm (Table S1), geometric mean (90% CI)",2.06 h
same,half-life,"[8]; MDZ 1 mg i.v., FKZ arm (Table S2), geometric mean (90% CI)",1.55 h
same,half-life,"[8]; MDZ 1 mg i.v., ITZ arm (Table S3), geometric mean (90% CI)",2.32 h
same,Tmax,[8]; [10],0.29 h
same,Tmax,[8]; [12],0.28 h
same,AUC(0-inf),"[8]; Baseline, APZ arm, MDZ 1.0 mg i.v. before inhibitor, geometric mean (range)",0.0168 µg·h/mL
same,AUC(0-inf),"[8]; Baseline, FKZ arm, MDZ 1.0 mg i.v. before inhibitor, geometric mean (range)",0.0124 µg·h/mL
same,clearance,"[8]; i.v. MDZ CL, Baseline, APZ arm, MDZ 1.0 mg i.v. before inhibitor, geometric mean (range)",993 mL/min
same,clearance,"[8]; i.v. MDZ CL, Baseline, FKZ arm, MDZ 1.0 mg i.v. before inhibitor, geometric mean (range)",1350 mL/min
same,AUC(0-inf),"[2]; human, in vivo, iv, 1 mg, i.v. MDZ AUC0-inf, Baseline, ITZ arm, MDZ 1.0 mg i.v. before inhibitor, geometric mean (range)",0.0121 µg·h/mL
same,clearance,"[2]; human, in vivo, iv, 1 mg, i.v. MDZ CL, Baseline, ITZ arm, MDZ 1.0 mg i.v. before inhibitor, geometric mean (range)",1380 mL/min
